Measured values from patent publication US20030004187A1, “Method for preventing dyskinesias” (priority 2001, published 2003).
Several values for one entry are separate records, joined by “and”; a condition that tells them apart may be missing. Equal values may be shown once.

Key:
MPTP monkey [1] = assay: Induction of L-Dopa-induced dyskinesias in de novo MPTP parkinsonian monkeys (dyskinetic score); format: in vivo, cynomolgus (Macaca fascicularis) monkeys; conditions: for Dyskinesia induction (in words): 4 weeks treatment, L-Dopa/benserazide 100/25 mg alone or plus CI-1041 10 mg/kg per os, FIG. 1
MPTP monkey [2] = assay: Delay and duration of L-Dopa response; format: in vivo, cynomolgus (Macaca fascicularis) monkeys; design: Delay of L-Dopa response / Duration of L-Dopa response: unit not given here; conditions: for Delay of L-Dopa response / Duration of L-Dopa response: mean ± SEM
MPTP monkey [3] = assay: Side effects and stereotypies observed during 1-month treatment; conditions: CI-1041 10 mg/kg per os with L-Dopa
Protocol: The experiments were performed in accordance with the standards of the Canadian Council on Animal care using eight female cynomolgus (Macaca fascicularis) monkeys weighing 3.0 to 3.5 kg. They were housed separately in individual observation cages equipped with an electronic motility monitoring system (Datascience, St. Paul, Minnesota) in a temperature-controlled room and exposed to a 12-hour light/dark cycle (lights on 6 AM-6 PM). They were fed once daily in the afternoon (certified primate chow and fruits), and water was provided ad libitum. […] The animals were scored several times a week using a disability scale described below, where the normal state extends from 0 to 2, and maximal disability is 16 points. […]
The severity of dyskinesias was also rated every 30 minutes for each body segment: the face, neck, trunk, arms, and legs in the following way: None=0; Mild=1; Moderate=2; Severe=3. The difference between mild, moderate, and severe dyskinesias for a given body segment is based on the assessment of the amplitude of the abnormal movements and the frequency (whether they are occasional, intermittent, or constant); each body segment being scored separately based on assessment of observation in the preceding half hour. […]

[4] = molecular target: NR1A/2B cloned NMDA receptors (Homo sapiens, UniProt Q05586+Q13224); conditions: cited from earlier work
MPTP-treated monkeys = conditions: 3 to 30 mg/kg, cited from earlier work
[5] = system: 6-OHDA-lesioned hemiparkinsonian rat model; conditions: cited from earlier work
MPTP monkey [6] = assay: Antiparkinsonian response, disability scale for MPTP monkey (parkinsonian score); format: in vivo, cynomolgus (Macaca fascicularis) monkeys
MPTP monkey [7] = assay: Locomotor activity by electronic motility monitoring system; format: in vivo, cynomolgus (Macaca fascicularis) monkeys; conditions: FIG. 2B; maintained during the 4 weeks
PD patients [8] = conditions: cited from earlier work
6-OHDA-lesioned rats = conditions: systemic administration; cited from earlier work
PD patients [9] = conditions: published observation in PD patients; cited from earlier work

Chain of NR1A/2B cloned NMDA receptors (Q13224 27-1484, other chains not shown): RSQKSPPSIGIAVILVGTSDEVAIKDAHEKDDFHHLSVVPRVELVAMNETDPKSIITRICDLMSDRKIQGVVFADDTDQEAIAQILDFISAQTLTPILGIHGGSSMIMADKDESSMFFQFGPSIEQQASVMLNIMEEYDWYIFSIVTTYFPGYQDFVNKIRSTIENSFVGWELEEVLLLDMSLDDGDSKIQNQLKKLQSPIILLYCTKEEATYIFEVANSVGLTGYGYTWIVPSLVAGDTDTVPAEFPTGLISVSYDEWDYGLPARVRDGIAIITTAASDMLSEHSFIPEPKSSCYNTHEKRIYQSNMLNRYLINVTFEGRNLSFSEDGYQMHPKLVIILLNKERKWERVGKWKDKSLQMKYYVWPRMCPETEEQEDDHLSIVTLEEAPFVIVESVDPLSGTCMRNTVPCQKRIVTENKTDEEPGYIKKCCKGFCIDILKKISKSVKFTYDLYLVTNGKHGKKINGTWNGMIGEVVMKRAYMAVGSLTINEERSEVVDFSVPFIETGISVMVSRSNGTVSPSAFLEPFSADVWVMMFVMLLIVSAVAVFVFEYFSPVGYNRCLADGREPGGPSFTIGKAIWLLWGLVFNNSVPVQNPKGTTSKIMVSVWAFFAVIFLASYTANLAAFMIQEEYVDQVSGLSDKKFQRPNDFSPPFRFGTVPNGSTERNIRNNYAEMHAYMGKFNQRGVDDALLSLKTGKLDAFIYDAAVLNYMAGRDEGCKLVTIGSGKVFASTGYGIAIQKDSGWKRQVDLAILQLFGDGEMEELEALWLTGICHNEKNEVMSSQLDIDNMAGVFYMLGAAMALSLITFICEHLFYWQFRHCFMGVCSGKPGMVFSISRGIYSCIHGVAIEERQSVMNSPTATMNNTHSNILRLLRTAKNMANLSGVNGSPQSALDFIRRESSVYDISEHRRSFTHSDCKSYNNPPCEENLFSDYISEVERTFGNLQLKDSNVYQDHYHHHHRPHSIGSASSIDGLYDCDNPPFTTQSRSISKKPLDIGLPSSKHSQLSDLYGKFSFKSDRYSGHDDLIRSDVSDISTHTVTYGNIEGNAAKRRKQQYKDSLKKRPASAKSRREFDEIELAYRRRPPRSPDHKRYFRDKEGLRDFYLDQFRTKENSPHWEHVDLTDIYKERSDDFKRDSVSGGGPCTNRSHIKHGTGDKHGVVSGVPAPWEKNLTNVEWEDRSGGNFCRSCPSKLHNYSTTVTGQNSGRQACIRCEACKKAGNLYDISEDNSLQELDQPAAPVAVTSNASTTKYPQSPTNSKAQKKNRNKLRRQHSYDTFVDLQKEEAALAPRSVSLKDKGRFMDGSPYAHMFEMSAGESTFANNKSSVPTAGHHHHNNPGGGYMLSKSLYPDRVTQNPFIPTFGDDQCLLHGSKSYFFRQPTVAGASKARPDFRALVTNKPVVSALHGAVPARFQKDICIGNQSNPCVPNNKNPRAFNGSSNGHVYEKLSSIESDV

O=c1[nH]c2ccc([S+]([O-])CCN3CCC(Cc4ccc(F)cc4)CC3)cc2o1 (centres unmarked) [CI-1041, 6-{2-[4-(4-fluoro-benzyl)-piperidin-1-yl]-ethanesulfinyl}-3H-benzooxazol-2-one]
Dyskinesia induction (in words) (MPTP monkey [1]; 10 mg/kg): prevented dyskinesias | Dyskinesia induction (in words) (MPTP monkey [1]; listed as C-1041): completely prevented the induction of dyskinesias in three animals | Effect of CI-1041 co-administration on delay and duration of the L-Dopa response (in words) (MPTP monkey [2]; trend for delayed response in first 2 weeks): not significantly affected | Side effects / tolerability (MPTP monkey [3]): well-tolerated and no emesis, ataxia, or hallucinations were observed | Affinity, block of NR2B-containing NMDA receptors ([4]; allosteric modulation site): 24 nM | Selectivity for NR1A/2B cloned NMDA receptors [4]: > 1000 fold | Alteration in the antiparkinsonian effects of L-Dopa (MPTP-treated monkeys; in combination with L-Dopa): did not produce a consistent alteration | Antiparkinsonian activity when administered alone (MPTP-treated monkeys): did not exhibit any antiparkinsonian activity | Contraversive rotation induced by L-Dopa ([5]; peak rate and duration increased, maintained following 9 days of repeated co-administration): potentiated the contraversive rotation | Rotation induced by direct acting dopamine agonists SKF 38393 and quinpirole ([5]; rat, in vivo): potentiated rotation | Rotation when given alone ([5]; rat, in vivo): increased both contraversive and ipsiversive rotations

N[C@@H](Cc1ccc(O)c(O)c1)C(=O)O [L-Dopa]
Dyskinesia induction (in words) (MPTP monkey [1]): moderate to severe | Persistent Dyskinesia (Max Score), Mean ± SEM (MPTP monkey [1]; group mean ± SEM, n=4): 7.1 ± 1.3 | Persistent Dyskinesia (MPTP monkey [1]; individual animal, Yes/None, 28 days treatment): Yes | Persistent Dyskinesia (Max Score) (MPTP monkey [1]; individual animal, maximum dyskinetic score, maximal score 21): 8.5 and 4 and 6 and 10 | Parkinsonian scores as compared to the control (in words) (MPTP monkey [6]; FIG. 2A): significantly (P<0.01) lowered | Antiparkinsonian Efficacy (Min. Score), Mean ± SEM (MPTP monkey [6]; group mean ± SEM, n=4, 28 days treatment): 3.3 ± 0.2 | Antiparkinsonian Efficacy (MPTP monkey [6]; individual animal, grade in words, 28 consecutive days of daily oral treatment): Good | Antiparkinsonian Efficacy (Min. Score) (MPTP monkey [6]; individual animal, minimum parkinsonian score, maximal disability 16, 28 days treatment): 2.8 and 3.7 and 3.4 (2×) | Locomotion as compared to control (in words) (MPTP monkey [7]): significant (P<0.01) increase in locomotion | Delay of L-Dopa response (MPTP monkey [2]; Day 7): 47.3 ± 4.4^ | Duration of L-Dopa response (MPTP monkey [2]; Day 7): 221.3 ± 46.0^ | Delay of L-Dopa response (MPTP monkey [2]; Day 14): 59.5 ± 17.2 | Duration of L-Dopa response (MPTP monkey [2]; Day 14): 189.3 ± 29.5^ | Delay of L-Dopa response (MPTP monkey [2]; Day 21): 52.5 ± 10.3^ | Duration of L-Dopa response (MPTP monkey [2]; Day 21): 222.5 ± 24.6^ | Delay of L-Dopa response (MPTP monkey [2]; Day 28): 50 ± 5.8 | Duration of L-Dopa response (MPTP monkey [2]; Day 28): 198.75 ± 25.5 | Prevalence of dyskinesias (PD patients [8]; human, in vivo): 30-80%

C[C@]12N[C@H](Cc3ccccc31)c1ccccc12 [MK-801]
L-Dopa-induced motor fluctuations (6-OHDA-lesioned rats): completely reversed and more interestingly prevented

NC12CC3CC(CC(C3)C1)C2 [amantadine]
L-Dopa-induced dyskinesias in PD patients (PD patients [8]; human, in vivo): reduced L-Dopa-induced dyskinesias | Maintenance of beneficial effects on motor response complications after treatment initiation (PD patients [8]; one study): at least 1 year

COc1ccc2c(c1)[C@]13CCCC[C@@H]1[C@H](C2)N(C)CC3 [dextromethorphan]
L-Dopa-induced dyskinesias in PD patients (PD patients [8]; human, in vivo): reduced L-Dopa-induced dyskinesias

CCCN[C@H]1CCc2nc(N)sc2C1 [pramipexole]
Sleep attacks (PD patients [9]): episodes of sudden onset of sleep

CCCN(CCC)CCc1cccc2c1CC(=O)N2 [ropinirole]
Sleep attacks (PD patients [9]): episodes of sudden onset of sleep
